Results from US12415803B2, “Fused imidazopyridines as reversible inhibitors of Brutons Tyrosine Kinase (BTK)” (Merck Patent GmbH, priority 2018, dated 2025).
pIC50: −log10 of the molar value.

Legend:
[1] = target: Btk (Homo sapiens (Human), UniProt Q06187); assay: Btk PBMC IC50 Cell Assay (anti-IgM-induced CD69 expression on B cells); format: cell-based; settings: anti-IgM-induced CD69 expression on CD19 positive cells in human PBMCs;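 further: freshly isolated human PBMCs, IC50 from concentration-response of the share of CD19+ cells expressing CD69 after anti-IgM BCR stimulation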
Chain of Btk (Q06187 whole entry): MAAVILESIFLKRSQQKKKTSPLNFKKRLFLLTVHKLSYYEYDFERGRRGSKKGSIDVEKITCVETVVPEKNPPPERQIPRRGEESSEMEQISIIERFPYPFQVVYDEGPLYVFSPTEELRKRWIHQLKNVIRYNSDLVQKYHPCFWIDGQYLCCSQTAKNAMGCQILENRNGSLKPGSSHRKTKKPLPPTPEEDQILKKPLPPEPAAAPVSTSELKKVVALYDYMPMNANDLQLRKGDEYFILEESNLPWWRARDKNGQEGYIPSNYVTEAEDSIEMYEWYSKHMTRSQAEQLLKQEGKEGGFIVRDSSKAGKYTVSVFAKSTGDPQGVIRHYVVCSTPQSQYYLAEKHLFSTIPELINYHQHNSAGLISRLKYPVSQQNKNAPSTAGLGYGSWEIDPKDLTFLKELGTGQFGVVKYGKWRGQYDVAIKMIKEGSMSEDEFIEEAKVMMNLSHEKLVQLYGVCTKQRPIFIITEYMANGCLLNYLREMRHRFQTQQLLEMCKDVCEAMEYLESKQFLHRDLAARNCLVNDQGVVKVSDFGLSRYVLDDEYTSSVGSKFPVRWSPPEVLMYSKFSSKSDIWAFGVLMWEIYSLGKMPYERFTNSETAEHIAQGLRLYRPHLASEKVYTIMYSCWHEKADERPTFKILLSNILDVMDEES

[2] = target: full-length human BTK (Homo sapiens (Human), UniProt Q06187); assay: BTK IC50 Enzyme Assay (microfluidic off-chip mobility shift kinase assay); format: biochemical; settings: Btk Enzymatic IC50 Assay, 90 min at 27 C;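 further: Read-out separates phosphorylated peptide product from substrate by their charge-to-mass difference, with IC50 fitted from log inhibitor concentration against percent enzyme activity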
Chain of full-length human BTK (Q06187 whole entry): as above

Row | pIC50 [1] | pIC50 [2] | SMILES
1 | 8.00 to 9.00 | > 9.00 | Cc1c(-c2nc3c(-c4ccc5c(c4)CCCC5NC(=O)c4noc(C5(C)CC5)n4)ccnc3[nH]2)cnn1C1CCOCC1 (stereo not shown) [Compound 151, 5-(1-Methyl-cyclopropyl)-[1,2,4]oxadiazole-3-carboxylic acid (6-{2-[5-methyl-1-(tetrahydro-pyran-4-yl)-1H-pyrazol-4-yl]-3H-imidazo[4,5-b]pyridin-7-yl}-1,2,3,4-tetrahydro-naphthalen-1-yl)-amide]
2 | 7.00 to 8.00 | 8.00 to 9.00 | Cc1c(-c2nc3c(-c4ccc5c(c4)CCC[C@H]5NC(=O)c4nc(C5(C)CC5)no4)ccnc3[nH]2)cnn1C1CCOCC1 [Compound 154, 3-(1-Methyl-cyclopropyl)-[1,2,4]oxadiazole-5-carboxylic acid ((R)-6-{2-[5-methyl-1-(tetrahydro-pyran-4-yl)-1H-pyrazol-4-yl]-3H-imidazo[4,5-b]pyridin-7-yl}-1,2,3,4-tetrahydro-naphthalen-1-yl)-amide]
3 | 8.00 to 9.00 | > 9.00 | Cc1c(-c2nc3c(-c4ccc5c(c4)CCC[C@H]5NC(=O)c4noc(C(C)(C)C)n4)ccnc3[nH]2)cnn1C1CCOCC1 [Compound 156, 5-tert-Butyl-[1,2,4]oxadiazole-3-carboxylic acid ((R)-6-{2-[5-methyl-1-(tetrahydro-pyran-4-yl)-1H-pyrazol-4-yl]-3H-imidazo[4,5-b]pyridin-7-yl}-1,2,3,4-tetrahydro-naphthalen-1-yl)-amide]

The next lines start with the compound.

Row | SMILES | pIC50 [1] | pIC50 [2]
4 | Cc1nn(C)c(C)c1-c1nc2c(-c3ccc4c(c3)CCCC[C@@H]4NC(=O)c3nc(C(C)(C)C)no3)ccnc2[nH]1 [Compound 141, 3-tert-Butyl-[1,2,4]oxadiazole-5-carboxylic acid {(S)-2-[2-(1,3,5-trimethyl-1H-pyrazol-4-yl)-3H-imidazo[4,5-b]pyridin-7-yl]-6,7,8,9-tetrahydro-5H-benzocyclohepten-5-yl}-amide] | < 7.00 | 7.00 to 8.00
5 | Cc1c(-c2nc3c(-c4ccc5c(c4)CCCC5NC(=O)N4CC(OC(C)(C)C)C4)ccnc3[nH]2)cnn1C(C)C (stereo not shown) [Compound 145, 3-tert-Butoxy-azetidine-1-carboxylic acid {6-[2-(1-isopropyl-5-methyl-1H-pyrazol-4-yl)-3H-imidazo[4,5-b]pyridin-7-yl]-1,2,3,4-tetrahydro-naphthalen-1-yl}-amide] | 7.00 to 8.00 | > 9.00
6 | Cc1c(-c2nc3c(-c4ccc5c(c4)CCCC5NC(=O)c4nc(C5(C)CC5)no4)ccnc3[nH]2)cnn1C(C)C (stereo not shown) [Compound 146, 3-(1-Methyl-cyclopropyl)-[1,2,4]oxadiazole-5-carboxylic acid {6-[2-(1-isopropyl-5-methyl-1H-pyrazol-4-yl)-3H-imidazo[4,5-b]pyridin-7-yl]-1,2,3,4-tetrahydro-naphthalen-1-yl}-amide] | 8.00 to 9.00 | 8.00 to 9.00
7 | Cc1c(-c2nc3c(-c4ccc5c(c4)CCCC5NC(=O)N4CC(OC(C)(C)C)C4)ccnc3[nH]2)cnn1C1CCOCC1 (stereo not shown) [Compound 147, 3-tert-Butoxy-azetidine-1-carboxylic acid (6-{2-[5-methyl-1-(tetrahydro-pyran-4-yl)-1H-pyrazol-4-yl]-3H-imidazo[4,5-b]pyridin-7-yl}-1,2,3,4-tetrahydro-naphthalen-1-yl)-amide] | 8.00 to 9.00 | > 9.00
8 | Cc1c(-c2nc3c(-c4ccc5c(c4)CCC[C@H]5NC(=O)N4CC(OC(C)(C)C)C4)ccnc3[nH]2)cnn1C1CCOCC1 [Compound 158, 3-tert-Butoxy-azetidine-1-carboxylic acid ((R)-6-{2-[5-methyl-1-(tetrahydro-pyran-4-yl)-1H-pyrazol-4-yl]-3H-imidazo[4,5-tetrahydro-naphthalen-1-b]pyridin-7-yl}-1,2,3,4-tetrahydro-naphthalen-1-yl)-amide] | 8.00 to 9.00 | 8.00 to 9.00
